Test results published in US4707481A, “Pyridazinones, their preparation and use, and bronchospasmolytic medicaments containing pyridazinones” (BYK Gulden Lomberg Chemische Fabrik GmbH, priority 1983, dated 1987).
Read-outs that look alike come from different tables or passages of the source.

Legend:
[1] = test system: chain of tracheal rings of guinea pigs; assay: relaxing action on chain of tracheal rings in vitro (bronchospasmolytic action); design: species or system guinea pig; settings: for EC50: Cavia porcellus, Column A, negative logarithm of EC50 in mol/l, 50% of maximum relaxation by (-)isoprenaline, read-out: -lg[EC50] trachea (converted); for [EC40 pot.] left atrium / [EC50] trachea: Column C, measure of organ-selective activity; for [EC50] theophylline / [EC50] substance: Column D, trachea
[2] = test system: electrically stimulated left atrium of rats; assay: positive inotropic action on electrically stimulated left atrium in vitro; design: species or system rat; settings: for [EC40 pot.] theophylline / [EC40 pot.] substance: Column E, left atrium; for EC40: Rattus norvegicus, Column B, negative logarithm of EC40pot in mol/l, 40% increase in contraction force, read-out: -lg[EC40 pot.] left atrium (converted)
[3] = test system: histamine-induced bronchospasm; assay: inhibition of histamine-induced bronchospasm in anesthetized guinea pigs; assay type: in vivo, guinea pig; settings: for inhibition of histamine-induced bronchospasm compared with theophylline: result in words
Experimental: A method for simultaneously recording pharmacodynamic and toxic effects on internal sensitive receptors, on the respiration and the cardiovascular system of guinea pigs was used [U. Kilian, E. Muller, E. Ch. […] To characterize the bronchospasm induced by histamine (0.09-0.18 μmol /kg i.v.), the maximum flow rate of the respiratory air during inspiration (Vmaxi) and expiration (Vmaxe) and the breath volume (BVi) were measured. A histamine spasm before administration of the substance was compared with several histamine spasms after administration of the substance. The test substances were administered intravenously (i.v.) and/or intrajejunally (i.j.). 5 to 10 animals were used per measurement, and the arithmetic mean was calculated from the results.

[4] = test system: acetylcholine-induced bronchospasm; assay: protective effect against acetylcholine-induced bronchospasm in conscious guinea pigs; assay type: in vivo, guinea pig; settings: for Doubling of the latency period / Tripling of the latency period: 100 μmol/kg p.o.; for Tripling of the latency period: figure in parentheses; for protective effect compared with theophylline: result in words
Experimental: The figure in parentheses indicates the number out of 10 animals in which the latency period more than tripled.
The latency period is to be understood to be the time from the start of acetylcholine-atomization until clear signs of asthma appeared.
The time from the start of atomization to the onset of clear respiratory exertion (in certain circumstances, hypoxic convulsion in the lateral position) is measured, and is denoted the latency period.
The test substance is administered orally by gavage (standard dose 100 μmol/kg, volume 1 ml of 4% strength methocel suspension in 0.9% strength sodium chloride solution/kg). […] Prolongation of the latency period to at least twice its length is regarded as a protective effect.

[5] = test system: guinea pig hearts isolated and perfused by the Langendorff method; assay: left-ventricular pressure and heart rate in isolated perfused Langendorff hearts; settings: for Emax: Cavia porcellus
Excerpt: After the animals have been sacrificed by a blow to the neck and exsanguination through the carotid arteries, the thoracic cavity is opened, and the aorta is exposed and looped up with a thread. A cannula, which is attached by tubing to the apparatus from which the nutrient solution slowly drops, is introduced in the direction of the heart and the heart is, quickly after removal from the thorax, connected to the perfusion apparatus. A balloon probe, connected to a Statham pressure sensor, is advanced through a cut through the left atrium into the left ventricle, and is provided with an initial pressure of 40 mm Hg. […] The nutrient solution flowing freely from the coronary sinus into the right atrium is measured with a flow […]) and, together with the change in the left-ventricular pressure and the heart rate determined from this, is recorded on a Watanabe recorder. The substances are administered in a volume of 0.1 ml of nutrient solution, in the dosage indicated in Tab.

[6] = test system: right ventricle of guinea pigs; assay: heart function dP/dtmax, right ventricle of anesthetized guinea pigs; assay type: in vivo, guinea pig
Experimental: The effect of the substances on the contractility of the heart of guinea pigs is tested on animals (.male., 400 to 1000 g) under urethane anesthesia. The change in pressure in the right ventricle of the heart is measured with a tip catheter introduced through the right jugular vein and the maximum rate of pressure rise (dP/dtmax) is determined from this. The heart rate is derived from the pressure waves. […] The test substances were administered intravenously. 5-7 animals were used for each measurement, and the arithmetic mean was calculated from the results.

## COc1cc(-c2ccc(=O)[nH]n2)ccc1OCC(C)C [Serial No. 16, 6-(3-methoxy-4-isobutoxyphenyl)-3[2H]pyridazinone]
[1]
  EC50: 288 nM
  [EC40 pot.] left atrium / [EC50] trachea: 5.8
  [EC50] theophylline / [EC50] substance: 468
[2]
  [EC40 pot.] theophylline / [EC40 pot.] substance: 251
  EC40: 1660 nM
[3]; 20 μmol/kg i.v., 2 min
  inhibition of histamine-induced bronchospasm, TVi: 153%
  inhibition of histamine-induced bronchospasm, Vmaxe: 145%
  inhibition of histamine-induced bronchospasm, Vmaxi: 154%
[3]; 20 μmol/kg i.v., 10 min
  inhibition of histamine-induced bronchospasm, TVi: 66%
  inhibition of histamine-induced bronchospasm, Vmaxe: 63%
  inhibition of histamine-induced bronchospasm, Vmaxi: 73%
[3]; 20 μmol/kg i.v., 20 min
  inhibition of histamine-induced bronchospasm, TVi: 46%
  inhibition of histamine-induced bronchospasm, Vmaxe: 60%
  inhibition of histamine-induced bronchospasm, Vmaxi: 48%
[3]; 20 μmol/kg i.v., 30 min
  inhibition of histamine-induced bronchospasm, TVi: 28%
  inhibition of histamine-induced bronchospasm, Vmaxe: 33%
  inhibition of histamine-induced bronchospasm, Vmaxi: 34%
[3]; 20 μmol/kg i.v., 60 min
  inhibition of histamine-induced bronchospasm, TVi: 13%
  inhibition of histamine-induced bronchospasm, Vmaxe: 16%
  inhibition of histamine-induced bronchospasm, Vmaxi: 15%
[3]
  inhibition of histamine-induced bronchospasm compared with theophylline: significantly more effective than theophylline
[4]; 30 min
  Doubling of the latency period: 8 N of 10 animals
  Tripling of the latency period: 5 N of 10 animals
[4]
  protective effect compared with theophylline: greater protective effect

## Cn1c(=O)c2[nH]cnc2n(C)c1=O [Theophylline, theophylline, reference compound]
[5]; after 3000 nMol, read-out: Emax left-ventricular pressure
  Emax: 16%
[5]; at Emax, 3000 nMol, read-out: Percentage increase in heart rate at Emax
  Emax: 5%
[5]; dose which leads to a 20% increase in left ventricular pressure
  EC20 left-ventricular pressure: is not reached
[2]
  EC40: 417000 nM
[3]; 20 μmol/kg i.v., 2 min
  inhibition of histamine-induced bronchospasm, TVi: 45%
  inhibition of histamine-induced bronchospasm, Vmaxe: 51%
  inhibition of histamine-induced bronchospasm, Vmaxi: 49%
[3]; 20 μmol/kg i.v., 10 min
  inhibition of histamine-induced bronchospasm, TVi: 5%
  inhibition of histamine-induced bronchospasm, Vmaxe: 10%
  inhibition of histamine-induced bronchospasm, Vmaxi: 11%
[3]; 20 μmol/kg i.v., 20 min
  inhibition of histamine-induced bronchospasm, TVi: 5%
  inhibition of histamine-induced bronchospasm, Vmaxe: 9%
  inhibition of histamine-induced bronchospasm, Vmaxi: 8%
[3]; 20 μmol/kg i.v., 30 min
  inhibition of histamine-induced bronchospasm, TVi: 10%
  inhibition of histamine-induced bronchospasm, Vmaxe: 13%
  inhibition of histamine-induced bronchospasm, Vmaxi: 8%
[3]; 60 μmol/kg i.j., 2 min
  inhibition of histamine-induced bronchospasm, TVi: 7%
  inhibition of histamine-induced bronchospasm, Vmaxe: 8%
  inhibition of histamine-induced bronchospasm, Vmaxi: 6%
[3]; 60 μmol/kg i.j., 10 min
  inhibition of histamine-induced bronchospasm, TVi: 35%
  inhibition of histamine-induced bronchospasm, Vmaxe: 33%
  inhibition of histamine-induced bronchospasm, Vmaxi: 42%
[3]; 60 μmol/kg i.j., 20 min
  inhibition of histamine-induced bronchospasm, TVi: 41%
  inhibition of histamine-induced bronchospasm, Vmaxe: 41%
  inhibition of histamine-induced bronchospasm, Vmaxi: 46%
[3]; 60 μmol/kg i.j., 30 min
  inhibition of histamine-induced bronchospasm, TVi: 37%
  inhibition of histamine-induced bronchospasm, Vmaxe: 40%
  inhibition of histamine-induced bronchospasm, Vmaxi: 45%
[3]; 60 μmol/kg i.j., 45 min
  inhibition of histamine-induced bronchospasm, TVi: 33%
  inhibition of histamine-induced bronchospasm, Vmaxe: 33%
  inhibition of histamine-induced bronchospasm, Vmaxi: 39%
[3]; 60 μmol/kg i.j., 60 min
  inhibition of histamine-induced bronchospasm, TVi: 37%
  inhibition of histamine-induced bronchospasm, Vmaxe: 32%
  inhibition of histamine-induced bronchospasm, Vmaxi: 39%
[3]; 60 μmol/kg i.v., 2 min
  inhibition of histamine-induced bronchospasm, TVi: 78%
  inhibition of histamine-induced bronchospasm, Vmaxe: 79%
  inhibition of histamine-induced bronchospasm, Vmaxi: 95%
[3]; 60 μmol/kg i.v., 10 min
  inhibition of histamine-induced bronchospasm, TVi: 27%
  inhibition of histamine-induced bronchospasm, Vmaxe: 27%
  inhibition of histamine-induced bronchospasm, Vmaxi: 38%
[3]; 60 μmol/kg i.v., 20 min
  inhibition of histamine-induced bronchospasm, TVi: 16%
  inhibition of histamine-induced bronchospasm, Vmaxe: 15%
  inhibition of histamine-induced bronchospasm, Vmaxi: 19%
[3]; 60 μmol/kg i.v., 30 min
  inhibition of histamine-induced bronchospasm, TVi: 16%
  inhibition of histamine-induced bronchospasm, Vmaxe: 15%
  inhibition of histamine-induced bronchospasm, Vmaxi: 18%
[3]; 60 μmol/kg i.v., 60 min
  inhibition of histamine-induced bronchospasm, TVi: 3%
  inhibition of histamine-induced bronchospasm, Vmaxe: 8%
  inhibition of histamine-induced bronchospasm, Vmaxi: 7%
[4]; 30 min
  Doubling of the latency period: 6 N of 10 animals
  Tripling of the latency period: 4 N of 10 animals
[4]; 45 min after administration
  Doubling of the latency period: 3 N of 10 animals
  Tripling of the latency period: 2 N of 10 animals
[6]; 10 μmol/kg i.v., 0-10 min (Maximum)
  Percentage change in dP/dtmax: 59%
[6]; 10 μmol/kg i.v., 10 min
  Percentage change in dP/dtmax: 12%
[6]; 10 μmol/kg i.v., 30 min
  Percentage change in dP/dtmax: 20%
[6]; 30 μmol/kg i.v., 0-10 min (Maximum)
  Percentage change in dP/dtmax: 92%
[6]; 30 μmol/kg i.v., 10 min
  Percentage change in dP/dtmax: 53%
[6]; 30 μmol/kg i.v., 30 min
  Percentage change in dP/dtmax: 67%
[6]; 100 μmol/kg i.v., 0-10 min (Maximum)
  Percentage change in dP/dtmax: 147%
[6]; 100 μmol/kg i.v., 10 min
  Percentage change in dP/dtmax: 135%
[6]; 100 μmol/kg i.v., 30 min
  Percentage change in dP/dtmax: 112%

## COc1ccc(-c2ccc(=O)[nH]n2)cc1OCC(C)C [Serial No. 15, 6-(4-methoxy-3-isobutoxyphenyl)-3[2H]pyridazinone]
[1]
  EC50: 724 nM
  [EC40 pot.] left atrium / [EC50] trachea: 0.5
  [EC50] theophylline / [EC50] substance: 186
[2]
  [EC40 pot.] theophylline / [EC40 pot.] substance: 1122
  EC40: 372 nM
[3]; 20 μmol/kg i.v., 2 min
  inhibition of histamine-induced bronchospasm, TVi: 99%
  inhibition of histamine-induced bronchospasm, Vmaxe: 108%
  inhibition of histamine-induced bronchospasm, Vmaxi: 172%
[3]; 20 μmol/kg i.v., 10 min
  inhibition of histamine-induced bronchospasm, TVi: 107%
  inhibition of histamine-induced bronchospasm, Vmaxe: 123%
  inhibition of histamine-induced bronchospasm, Vmaxi: 119%
[3]; 20 μmol/kg i.v., 20 min
  inhibition of histamine-induced bronchospasm, TVi: 104%
  inhibition of histamine-induced bronchospasm, Vmaxe: 103%
  inhibition of histamine-induced bronchospasm, Vmaxi: 110%
[3]; 20 μmol/kg i.v., 30 min
  inhibition of histamine-induced bronchospasm, TVi: 63%
  inhibition of histamine-induced bronchospasm, Vmaxe: 84%
  inhibition of histamine-induced bronchospasm, Vmaxi: 82%
[3]; 20 μmol/kg i.v., 60 min
  inhibition of histamine-induced bronchospasm, TVi: 33%
  inhibition of histamine-induced bronchospasm, Vmaxe: 46%
  inhibition of histamine-induced bronchospasm, Vmaxi: 60%
[3]
  inhibition of histamine-induced bronchospasm compared with theophylline: significantly more effective than theophylline
[4]; 30 min
  Doubling of the latency period: 10 N of 10 animals
  Tripling of the latency period: 10 N of 10 animals
[4]
  protective effect compared with theophylline: greater protective effect
